Laboratory results published in ChEMBL document CHEMBL3102742, “Corallorazines from the myxobacterium Corallococcus coralloides” (J Nat Prod, 2014).
Calls of active or inactive are those of the source.

Assays:
[1] = target: Cathepsin S (Homo sapiens) (UniProt P25774); assay: Inhibition of cathepsin S (unknown origin) up to 10 ug/ml
Trypsin (Homo sapiens) = Trypsin (Homo sapiens) (UniProt P07477+P07478+P35030); assay: Inhibition of trypsin (unknown origin) up to 10 ug/ml; type: protein assay
Homo sapiens = organism: Homo sapiens; assay: Inhibition of chymotrypsin (unknown origin) up to 10 ug/ml
[2] = target: Prothrombin (Homo sapiens) (UniProt P00734); assay: Inhibition of human thrombin up to 10 ug/ml
Mycotypha microspora = assay: Antifungal activity against Mycotypha microspora up to 1 mg/ml by agar diffusion method; type: functional, organism-based
[3] = target: Cathepsin B (Homo sapiens) (UniProt P07858); assay: Inhibition of cathepsin B (unknown origin) up to 10 ug/ml
Microbotryum violaceum = assay: Antifungal activity against Microbotryum violaceum up to 1 mg/ml by agar diffusion method; type: functional, organism-based
[4] = target: Cannabinoid receptor 2 (Homo sapiens) (UniProt P34972); assay: Binding affinity to CB2 receptor (unknown origin) up to 10 ug/ml
Escherichia coli = assay: Antibacterial activity against Escherichia coli DSM 498 up to 1 mg/ml by agar diffusion method; type: functional, organism-based
[5] = target: Procathepsin L (Homo sapiens) (UniProt P07711); assay: Inhibition of cathepsin L (unknown origin) up to 10 ug/ml
Priestia megaterium = assay: Antibacterial activity against Bacillus megaterium DSM 32 up to 1 mg/ml by agar diffusion method; type: functional, organism-based
[6] = target: T1, Neutrophil elastase (Homo sapiens) (UniProt P08246); assay: Inhibition of human leucocyte elastase up to 10 ug/ml
T1 sequence (whole entry): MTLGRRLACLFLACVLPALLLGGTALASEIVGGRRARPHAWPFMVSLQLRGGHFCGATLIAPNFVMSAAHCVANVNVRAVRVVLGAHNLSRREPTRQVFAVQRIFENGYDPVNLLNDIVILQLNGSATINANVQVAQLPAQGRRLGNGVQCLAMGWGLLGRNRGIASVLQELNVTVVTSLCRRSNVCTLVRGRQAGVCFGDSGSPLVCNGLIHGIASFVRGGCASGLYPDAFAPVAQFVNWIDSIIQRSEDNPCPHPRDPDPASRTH

Aspergillus ruber = assay: Antifungal activity against Eurotium rubrum DSM 62631 up to 1 mg/ml by agar diffusion method; type: functional
[7] = target: Cannabinoid receptor 1 (Homo sapiens) (UniProt P21554); assay: Binding affinity to CB1 receptor (unknown origin) up to 10 ug/ml
Sequence of Cannabinoid receptor 1 (Homo sapiens) (P21554 whole entry): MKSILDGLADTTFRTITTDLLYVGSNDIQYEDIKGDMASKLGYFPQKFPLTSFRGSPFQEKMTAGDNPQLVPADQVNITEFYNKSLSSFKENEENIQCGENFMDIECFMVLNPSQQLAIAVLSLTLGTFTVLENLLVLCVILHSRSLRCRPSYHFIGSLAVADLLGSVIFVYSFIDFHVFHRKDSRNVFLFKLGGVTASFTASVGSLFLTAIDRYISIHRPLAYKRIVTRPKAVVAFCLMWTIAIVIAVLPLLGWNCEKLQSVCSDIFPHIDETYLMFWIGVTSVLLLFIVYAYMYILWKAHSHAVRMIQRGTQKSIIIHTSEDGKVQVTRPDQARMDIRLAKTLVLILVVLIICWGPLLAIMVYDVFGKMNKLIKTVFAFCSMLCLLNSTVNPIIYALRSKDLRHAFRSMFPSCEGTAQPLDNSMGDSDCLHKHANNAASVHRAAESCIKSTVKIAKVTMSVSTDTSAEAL

Sequence of Cathepsin S (Homo sapiens) (P25774 115-331 limits assumed): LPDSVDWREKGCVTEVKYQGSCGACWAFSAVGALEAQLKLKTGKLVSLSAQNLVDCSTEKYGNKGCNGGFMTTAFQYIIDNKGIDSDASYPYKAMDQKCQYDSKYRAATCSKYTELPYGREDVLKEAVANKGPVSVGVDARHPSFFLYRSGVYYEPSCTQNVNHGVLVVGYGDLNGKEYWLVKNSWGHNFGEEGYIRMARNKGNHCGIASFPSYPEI
Sequence of Procathepsin L (Homo sapiens) (P07711 114-333 limits assumed): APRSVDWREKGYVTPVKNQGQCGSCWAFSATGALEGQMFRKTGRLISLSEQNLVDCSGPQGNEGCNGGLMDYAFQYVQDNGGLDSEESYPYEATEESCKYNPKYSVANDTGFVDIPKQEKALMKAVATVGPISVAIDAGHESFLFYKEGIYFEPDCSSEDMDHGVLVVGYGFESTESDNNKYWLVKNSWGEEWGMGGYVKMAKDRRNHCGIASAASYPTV
Sequence of Cannabinoid receptor 2 (Homo sapiens) (P34972 whole entry, the tested form may be a part): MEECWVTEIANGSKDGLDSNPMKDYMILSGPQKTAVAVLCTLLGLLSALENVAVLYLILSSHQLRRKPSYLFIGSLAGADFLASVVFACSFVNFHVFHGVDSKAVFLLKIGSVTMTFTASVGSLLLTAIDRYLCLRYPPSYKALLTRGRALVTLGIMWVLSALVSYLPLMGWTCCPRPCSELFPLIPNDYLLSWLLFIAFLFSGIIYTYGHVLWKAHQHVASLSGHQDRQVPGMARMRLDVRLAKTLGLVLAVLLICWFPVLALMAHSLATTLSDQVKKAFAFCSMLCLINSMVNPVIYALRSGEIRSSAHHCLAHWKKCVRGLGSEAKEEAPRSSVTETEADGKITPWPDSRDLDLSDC

C=C1C(=O)N(C)CC(O)N1C(=O)/C=C/C=C\CC(C)C (centres undefined)
inactive: inhibition [1] | inhibition (Trypsin (Homo sapiens)) | inhibition (Homo sapiens) | inhibition [2] | Activity (Mycotypha microspora) | inhibition [3] | Activity (Microbotryum violaceum) | Activity [4] | Activity (Escherichia coli) | inhibition [5] | Activity (Priestia megaterium) | inhibition [6] | Activity (Aspergillus ruber) | Activity [7]
